Experimental findings from the OligoGym collection are described below.

The series addresses DGAT2. Particulars: ASO.

Several values for one entry are separate records, joined by “and”; a condition that tells them apart may be missing. Equal entries are not always repeated. After the bases stand the sugars from the 5' end (letter, count) and the backbone: PS all phosphorothioate, else s phosphorothioate and o phosphodiester by linkage. Methylation of C is not given here. e = 2'-O-(2-methoxyethyl) (MOE); d = 2'-deoxy (DNA)

In the case of “AGGACCCACTGGAGCAC (sugars e3 d10 e4, PS)”, the target mRNA inhibition was found to be 42% (HepG2, 2.5 µM) and 93% (HepG2, 10 µM).
On to “ACATATCCCCAACTGAAACA (sugars e5 d10 e5, PS)”, for which the target mRNA inhibition (HepG2, 0.12 µM) was 21%.
In turn, “TGATCTCATCAAGAGATAAC (sugars e5 d10 e5, PS)” had a target mRNA inhibition (HepG2, 0.12 µM) of 17%.
“TTCCATTTTTTACCCAACCT (sugars e5 d10 e5, PS)” registered a target mRNA inhibition (HepG2, 2.5 µM) of 57% and a target mRNA inhibition (HepG2, 10 µM) of 93%.
For “ACCTCACCTCCATACTGGCA (sugars e5 d10 e5, PS)” the same measures were 65% and 86%.
Sequence “CTCTCCAACTCCTCCCCTTG (sugars e5 d10 e5, PS)” came in with a target mRNA inhibition (HepG2, 0.12 µM) of 25%.
As for “GCACATCTCTTCCATCTCCA (sugars e5 d10 e5, PS)”, the target mRNA inhibition is, setting by setting: (HepG2, 2.5 µM) 74%; (HepG2, 10 µM) 92%.
As for “GAGCAGGTTCATCTGCCTTG (sugars e5 d10 e5, PS)”, the target mRNA inhibition is, setting by setting: (HepG2, 2.5 µM) 81% and 61%; (HepG2, 10 µM) 92% and 83%.
Regarding “TCCCCAATATCATACTATCT (sugars e5 d10 e5, PS)”, the target mRNA inhibition by setting is: (HepG2, 2.5 µM) 50%; (HepG2, 10 µM) 88%.
The sequence “CCACCTTCCAGGGAATAAAA (sugars e5 d10 e5, PS)” had a target mRNA inhibition (HepG2, 0.12 µM) of 22%.
Still for that read-out and setting: the value for “GACTGCATTCTTGCCAGGCA (sugars e5 d10 e5, PS)” was 60%.
Consider “AGTTTCCTTTGAAATCCAAT (sugars e5 d10 e5, PS)”, for which the target mRNA inhibition amounted to 65% (HepG2, 2.5 µM) and 88% (HepG2, 10 µM).
The sequence “TTTGGAACTAATCTGCTGCT (sugars e5 d10 e5, PS)” came in with a target mRNA inhibition (HepG2, 0.12 µM) of 50%.
On to “GCCACCCCCATCCTCATCCT (sugars e5 d10 e5, PS)”, for which the target mRNA inhibition (HepG2, 0.12 µM) was 0%.
Regarding “CAAATCTGTGTGACCTTGGG (sugars e5 d10 e5, PS)”, the target mRNA inhibition (HepG2, 2.5 µM) is 65% and the target mRNA inhibition (HepG2, 10 µM) stood at 93%.
In turn, “GCATGGAGCTCAGAGACTCA (sugars e3 d14 e3, PS)” yielded a target mRNA inhibition (HepG2, 0.12 µM) of 51%.
As to “AGCTGCAAGGATGACCTTGG (sugars e5 d10 e5, PS)”, the target mRNA inhibition by setting is: (HepG2, 2.5 µM) 52%; (HepG2, 10 µM) 34%.
Turning to “AGTTTCGGACCCACTGTGAC (sugars e2 d13 e5, PS)”, the target mRNA inhibition (HepG2, 0.12 µM) stood at 64%.
Consider “AACTCTGCCATTTAATGAGC (sugars e5 d10 e5, PS)”, for which the target mRNA inhibition by setting is: (HepG2, 2.5 µM) 17%; (HepG2, 10 µM) 53%.
“TGCTCAGTTCTTCCAACCAG (sugars e5 d10 e5, PS)”: the target mRNA inhibition reads like this: (HepG2, 2.5 µM) 86% and 79%; (HepG2, 10 µM) 93% and 94%.
“GGCTTCACCGTCCCACAGCA (sugars e5 d10 e5, PS)”: under “HepG2, 0.12 µM”, the target mRNA inhibition amounted to 39%.
Sequence “GTTTCGGACCCACTGTGACC (sugars e5 d10 e5, PS)” showed a target mRNA inhibition (HepG2, 0.12 µM) of 65%.
“CACTTCTGTGGCCTCTGTGC (sugars e5 d10 e5, PS)”: the target mRNA inhibition (HepG2, 0.12 µM) is 38%.
Same read-out and setting: the result for “AGCCAGGTAAGGCCGTATGC (sugars e3 d14 e3, PS)” reads 51%; that for “TCCAAAGATATAGTTCCTGG (sugars e5 d10 e5, PS)”, 63%; that for “AGCAGGTTGTGTGTCTTCAC (sugars e3 d14 e3, PS)”, 63%.
In turn, “ATAACCCACAGACACCCATG (sugars e5 d10 e5, PS)” came in with a target mRNA inhibition (HepG2, 0.12 µM) of 24%.
Still for that read-out and setting: the result for “CTGTGACCTCCTGCCACCTT (sugars e5 d10 e5, PS)” reads 25%.
For the sequence “GTGACCTTGGGATAGTCCCT (sugars e5 d10 e5, PS)”, the target mRNA inhibition is, setting by setting: (HepG2, 2.5 µM) 76% and 69%; (HepG2, 10 µM) 92% and 89%.
For the sequence “AGCTGGATGGGAAAGTAGTC (sugars e5 d10 e5, PS)”, the target mRNA inhibition (HepG2, 0.12 µM) was 31%.
As to “GTTTACTGTGGCACTAAGCT (sugars e5 d10 e5, PS)”, the target mRNA inhibition runs as follows: (HepG2, 2.5 µM) 57%; (HepG2, 10 µM) 84%.
As for “GCTTATCCTTGAGGGTCTCA (sugars e5 d10 e5, PS)”, the target mRNA inhibition is 82% and 77% and 88% (HepG2, 2.5 µM); 94% and 89% and 95% (HepG2, 10 µM).
“CATGTCATCAGCCACCCAAG (sugars e5 d10 e5, PS)” yielded a target mRNA inhibition (HepG2, 0.12 µM) of 16%.
On to “GCAGGTTGTGTGTCTTCACC (sugars e5 d10 e5, PS)”, for which, for the setting “HepG2, 0.12 µM”, the target mRNA inhibition is 65% and 73%.
Regarding “AGGATGCTTAACTTCTGCTG (sugars e5 d10 e5, PS)”, the target mRNA inhibition amounted to 82% (HepG2, 2.5 µM) and 76% (HepG2, 10 µM).
“CAGCGATGAGCCAGCAA (sugars e3 d10 e4, PS)” yielded a target mRNA inhibition (HepG2, 2.5 µM) of 35% and a target mRNA inhibition (HepG2, 10 µM) of 88%.
The sequence “CCAGGCCAAGGCTGAGTCTG (sugars e5 d10 e5, PS)” registered a target mRNA inhibition (HepG2, 0.12 µM) of 27%.
Regarding “TCACCAGATTGTTGTGGGAA (sugars e5 d10 e5, PS)”, the target mRNA inhibition amounted to 69% (HepG2, 2.5 µM) and 78% (HepG2, 10 µM).
On the same counts, the results for “GCATGAACAAGGGCAAGTCC (sugars e5 d10 e5, PS)” are 79% and 89%.
For the sequence “TAGTTCCTGGTGGTCAGCAG (sugars e5 d10 e5, PS)”, the target mRNA inhibition (HepG2, 0.12 µM) came to 48%.
As to “GGCCTTGGCTGCAAGCTCTG (sugars e5 d10 e5, PS)”, the target mRNA inhibition runs as follows: (HepG2, 2.5 µM) 52%; (HepG2, 10 µM) 67%.
“CCAATGCCTAGGTCACAGTT (sugars e5 d10 e5, PS)” had a target mRNA inhibition (HepG2, 2.5 µM) of 91% and a target mRNA inhibition (HepG2, 10 µM) of 83%.
In turn, “CCTGTAGCTGCTTTTCCACC (sugars e5 d10 e5, PS)” displayed a target mRNA inhibition (HepG2, 0.12 µM) of 29%.
In turn, “TACTGACTTTTTCCTTCTTA (sugars e5 d10 e5, PS)” displayed a target mRNA inhibition (HepG2, 0.12 µM) of 39%.
In the case of “GGACAGAGGTTCAACATCCA (sugars e5 d10 e5, PS)”, the target mRNA inhibition by setting is: (HepG2, 2.5 µM) 58%; (HepG2, 10 µM) 89%.
For the sequence “GGCCAAGGCTGAGTCTGTGC (sugars e5 d10 e5, PS)”, the target mRNA inhibition (HepG2, 0.12 µM) came out at 17%.
For the sequence “CCAGTTTCGGACCCACTGTG (sugars e2 d13 e5, PS)”, the target mRNA inhibition reads like this: (HepG2, 0.12 µM) 80%; (HepG2, 2.5 µM) 12%; (HepG2, 10 µM) 25% and 50%; (HepG2, 20 µM) 50%.
In the case of “ACTATCACACCACCTCCCAC (sugars e5 d10 e5, PS)”, the target mRNA inhibition reads like this: (HepG2, 2.5 µM) 2%; (HepG2, 10 µM) 62%.
On to “GCCAGTGTAGCCAGGTAAGG (sugars e5 d10 e5, PS)”, for which the target mRNA inhibition (HepG2, 0.12 µM) turned out to be 9%.
As for “AGGCATGCTTCCTCCCA (sugars e3 d10 e4, PS)”, the target mRNA inhibition by setting is: (HepG2, 2.5 µM) 73%; (HepG2, 10 µM) 49%.
Consider “GTCACCTCTTCCAGGAAGAC (sugars e5 d10 e5, PS)”, for which the target mRNA inhibition (HepG2, 2.5 µM) was 83% and 73% and 76%; the target mRNA inhibition (HepG2, 10 µM) is 92% and 88%.
Regarding “GCTATAGAATCAGACAGACC (sugars e5 d10 e5, PS)”, the target mRNA inhibition (HepG2, 0.12 µM) was 46%.
Take “TTAGGCATGCTTCCTCCCAC (sugars e5 d10 e5, PS)”: the target mRNA inhibition runs as follows: (HepG2, 2.5 µM) 78%; (HepG2, 10 µM) 68%.
For the setting “HepG2, 0.12 µM”, “CGACAGCGCAGGTCCTCCGT (sugars e5 d10 e5, PS)” came in with a target mRNA inhibition of 48%.
In the case of “GACCCACTGGAGCACTGAGA (sugars e2 d13 e5, PS)”, the target mRNA inhibition (HepG2, 0.12 µM) turned out to be 70%.
For “AGCACAGCGATGAGCCA (sugars e3 d10 e4, PS)”, the target mRNA inhibition reads like this: (HepG2, 2.5 µM) 58%; (HepG2, 10 µM) 87%.
For the sequence “AACCACTGTTGCTGAGCTCA (sugars e5 d10 e5, PS)”, the target mRNA inhibition is, setting by setting: (HepG2, 2.5 µM) 74% and 72%; (HepG2, 10 µM) 88%.
On to “AGCGCAGAGCCCATCAGCCT (sugars e5 d10 e5, PS)”, for which the target mRNA inhibition (HepG2, 0.12 µM) came to 48%.
For the sequence “TCAGCCACCCAAGAAAAACC (sugars e5 d10 e5, PS)”, where the note is “HepG2, 0.12 µM”, the target mRNA inhibition was 0%.
For the sequence “TGGTTGCAATGTTGCCATCA (sugars e5 d10 e5, PS)”, the target mRNA inhibition (HepG2, 2.5 µM) was 94% and 78%; the target mRNA inhibition (HepG2, 10 µM) is 94% and 93%.
In turn, “GCGCAGGACCCCGGAGTAGG (sugars e5 d10 e5, PS)” displayed a target mRNA inhibition (HepG2, 0.12 µM) of 79%.
The same measure, in the same setting: the value for “CCAAAGATATAGTTCCTGGT (sugars e5 d10 e5, PS)” was 66%.
For “GGGCGAAACCAATGTATTTC (sugars e5 d10 e5, PS)”, the target mRNA inhibition (HepG2, 0.12 µM) stood at 24%.
Take “TAAATAACCCACAGACACCC (sugars e5 d10 e5, PS)”: for the setting “HepG2, 0.12 µM”, the target mRNA inhibition amounted to 6%.
For the sequence “CGATTCACTGAGGACCTCAG (sugars e5 d10 e5, PS)”, the target mRNA inhibition (HepG2, 2.5 µM) stood at 79% and the target mRNA inhibition (HepG2, 10 µM) came to 61%.
As to “GCTCAGTTCTTCCAACCAGT (sugars e5 d10 e5, PS)”, the target mRNA inhibition is 87% and 86% (HepG2, 2.5 µM); 94% and 93% (HepG2, 10 µM).
Sequence “CAGGGTGACTTTGCCCCATT (sugars e5 d10 e5, PS)” yielded a target mRNA inhibition (HepG2, 0.12 µM) of 43%.
Consider “AGTTCCTGGTGGTCAGCAGG (sugars e5 d10 e5, PS)”, for which, where the note is “HepG2, 0.12 µM”, the target mRNA inhibition is 58%.
As to “CAGGACCCCGGAGTAGGCGG (sugars e5 d10 e5, PS)”, where the note is “HepG2, 0.12 µM”, the target mRNA inhibition is 75%.
As for “AGGCTGAGTTCTGCTCCTGG (sugars e5 d10 e5, PS)”, the target mRNA inhibition is, setting by setting: (HepG2, 2.5 µM) 72%; (HepG2, 10 µM) 78%.
Where the note is “HepG2, 0.12 µM”, “CCGCGCAGGACCCCGGAGTA (sugars e5 d10 e5, PS)” had a target mRNA inhibition of 75%.
“TGTCCTTATCAAAATCCCTC (sugars e5 d10 e5, PS)” gave a target mRNA inhibition (HepG2, 0.12 µM) of 38%.
On the same count and under the same terms, the result for “AGCACTGAGATGACCTGTAG (sugars e5 d10 e5, PS)” reads 36%; that for “CCCAGGAGCCCTCCTCGAAG (sugars e5 d10 e5, PS)”, 54%.
In the case of “CGCGATTCACTGAGGAC (sugars e3 d10 e4, PS)”, the target mRNA inhibition (HepG2, 2.5 µM) is 73% and 74%.
In the case of “ACCCCCTCAGGAAGGCACAG (sugars e5 d10 e5, PS)”, the target mRNA inhibition (HepG2, 0.12 µM) amounted to 25%.
For the sequence “TTTGCTCAGTTCTTCCAACC (sugars e5 d10 e5, PS)”, the target mRNA inhibition (HepG2, 2.5 µM) is 72% and 70%; the target mRNA inhibition (HepG2, 10 µM) was 93% and 92%.
As to “ACAGCGATGAGCCAGCA (sugars e3 d10 e4, PS)”, the target mRNA inhibition (HepG2, 2.5 µM) worked out at 45% and the target mRNA inhibition (HepG2, 10 µM) stood at 88%.
